Literature values in US8709164B2, “Methods and compositions for dislodging debris particles from a substrate” (University of South Carolina, priority 2010, dated 2014).

How the values were obtained:
D. farinae = settings: among 15 chemicals
D. pteronyssinus = settings: washing soak with addition of 0.03% benzyl benzoate

Structure (SMILES)	ability to kill D. farinae (words, order of potency) (D. farinae)	mites survived out of 10,000 (D. pteronyssinus)
CCN(CC)c1nc(C)cc(OP(=S)(OC)OC)n1 [pirimiphosmethyl]	most effective	
Cl[C@H]1[C@H](Cl)[C@@H](Cl)[C@@H](Cl)[C@H](Cl)[C@H]1Cl [Lindane]	most effective	
O=C(OCc1ccccc1)c1ccccc1 [benzyl benzoate]	most effective	approximately 50
